What all share (format): cell-based, human
For test [1], the system named is MDA-MB-435S cells expressing del 8 E-cadherin. In words: Cell motility by time-lapse laser scanning microscopy, del 8 E-cadherin transfectants. The settings on record: del 8 E-cadherin cells on collagen I, Tyrphostin AG 1478 6.3 μM; for cell motility enhanced by mutant E-cadherin (effect of inhibitor): 7 h, PD 98059 50 μM, LY 294002 40 μM. The method, then: For time-lapse laser scanning microscopy, cells were cultivated in a microscope-coupled incubation chamber (Zeiss, Jena, Germany) at 37° C. under 5% CO2. Cells were seeded at a density of 2×10^5 cells per 3.5-cm in plates with a glass bottom which were purchased either uncoated or coated with poly-lysine from MatTek Corporation (Ashland, Mass., USA). Uncoated plates were coated for 4 h at 37° C. with collagen I (100 μg/ml, Sigma, Deisenhofen, Germany) or overnight at 4° C. with fibronectin (10 μg/ml, Sigma) or vitronectin (10 μg/ml, Becton Dickinson, Bedford, USA). Kinase inhibitors were used at final concentrations of 50 μM (PD 98059, Sigma, Deisenhofen, Germany), 40 μM (LY 294002, Calbiochem, Schwalbach, Germany), or 6.3 μM (Tyrphostin AG 1478, Sigma). […] Phase contrast images were taken at 3 min intervals with an Axiovert laser scanning microscope LSM 510 (Zeiss) with lens PNF 20×/0.4 PH2 and a helium-neon laser at 543 nm in transmission scanning mode. The percentage of motile cells was measured by drawing the outlines of cells on the screen and counting the cells which moved completely out of the initial area within the recording time of 7 h. Semiautomatic tracing of cell nuclei using the laser scanning microscope software from Zeiss allowed determination of the individual cell speed. The calculation of the cell speed is based on the division of the displacement of an individual cell divided by the total time of recording. Cells were brought in suspension by disruption of cell-cell and cell-matrix interactions and seeded on glass plates precoated with collagen type 1. Cell motility was analyzed by long-term recordings of a duration of 7 h starting 2 h after plating using a laser scanning microscope coupled with a temperature- and CO2-controlled incubation chamber. Motile cells were defined as cells which were able to move out of their initial space within 7 h according to a method described by Marks (J. Cell Bioll. 112 (1991), 149-158). The percentage of motile cells was similar in non-transfected (30%) or wt E-cadherin expressing MDA-MB-435S cells (26%) but elevated upon expression of mutant E-cadherin: […] (52%), […] (58%) and p8 (45%, FIG. 1B). It has been shown for a number of cell lines that the motile behavior of individual cells is variable and therefore it is advisable to investigate a large number of cells to obtain a reliable determination of cellular velocity (Hartmann-Petersen, Cytometry 40 (2000), 260-270). In order to determine the motility of individual cells, the center of the nucleus was semiautomatically traced and the speed of 60 cells per cell line derived from at least three independent experiments was calculated. The range between the minimal and the maximal cell speed and the median of cell speeds were used as motility parameters. […]

A further test has as its system p44/42 MAP kinase. In words: Western blot with phosphorylation-specific antibodies, MAP kinase. The settings on record: data not shown. The method, then: (§1) For immunoblot analysis, cells were seeded at a density of 6×10^5 cells per 10 cm tissue culture dish and lysed 5 h later with 500 μL-CAM buffer (140 mM NaCl, 4.7 mM KCl, 0.7 mM MgSO4, 1.2 mM CaCl2, 10 mM Hepes pH 7.4, containing 1% (v/v) Triton-X-100 and 1 mM phenylmethylsulfonylfluoride (PMSF) (Cunningham, Proc. Acad. Sci. USA 81 (1984), 5787-5791). Proteins were separated by 7% SDS-polyacrylamide gel electrophoresis followed by transfer to nitrocellulose (Schleicher & Schuell, Dassel, Germany) or PVDF (Bio-Rad Laboratories, München, Germany) membranes. Polyclonal antibodies against total or activated kinases were purchased from New England Biolabs (Frankfurt, Germany): Akt antibody (#9272), detecting total Akt kinase levels, phospho-Akt antibody (Ser473, #9270), detecting phosphorylated Ser 473 in Akt1, Akt2 and Akt3, MAP kinase antibody (# 9102), detecting total MAP kinase, phospho-p44/42 MAP kinase (#9101) detecting activated MAP kinase phosphorylated at Thr 202/[…]. Monoclonal antibody against p53 was purchased from Oncogene Research Products (Ab-6, #OP43). Polyclonal antibodies against total or activated p38 MAP kinases were purchased from New England Biolabs. Phospho-p38 MAP kinase polyclonal antibody (#9211) detects phosphorylated threonine 180 and tyrosine 182 p38 MAP kinase (#9212). […]

The test system of test [2] is wt-EcadEGFP expressing MDA-MB-435S cells. Nature of the test: Time-lapse imaging of motility and E-cadherin localization, wt-EcadEGFP transfectants. The settings on record: for cell motility (range of cell speeds) / cell paths (range): wt-EcadEGFP cells, 10 cells, 4 h. On the procedure: (§2) For time-lapse laser scanning microscopy, cells were cultivated overnight in a microscope-coupled incubation chamber (Zeiss, Jena, Germany) at 37 °C under 5% CO2. Cells were seeded at a density of 1×10^5 cells per 3.5-cm in collagen I-coated plates with a glass bottom which were purchased from MatTek Corporation (Ashland, Mass., USA). Uncoated plates were coated for 4 h at 37° C. with collagen I (100 μg/ml). EGFR kinase inhibitor Tyrphostin AG 1478 (Sigma, Deisenhofen, Germany) was used at a final concentration of 6.3 μM. […] Phase contrast images were taken at 2-3 min intervals with an Axiovert laser scanning microscope LSM 510 (Zeiss) with lens PNF 63× (oil) and an argon laser at 488 nm with a transmission filter of 515 nm.
(§3) To investigate the temporal localization of mutant E-cadherin during cell migration, EcadEGFP transfected cells were cultivated in an incubation chamber coupled with a Zeiss Axiovert 100 microscope. Cells transfected with the vector pEGFP-N2 Vektor or the different EcadEGFP constructs (wt-EcadEGFP and p8-EcadEGFP), were seeded on collagen I coated dishes with glas bottom.

The next test has as its system Akt/PKB. Nature of the test: Western blot with phosphorylation-specific antibodies, Akt/PKB. The settings on record: data not shown. On the procedure:
as §1
On the technique in general: In western blotting, separated proteins are transferred to a membrane and probed.

The subject of test [3] is p8-EcadEGFP expressing MDA-MB-435S cells. In words: Time-lapse imaging of motility and E-cadherin localization, p8-EcadEGFP transfectants. The method, then: as §2, §3
The subject of test [4] is MDA-MB-435S cells expressing wt E-cadherin. In words: Cell motility by time-lapse laser scanning microscopy, wt E-cadherin transfectants. On the procedure: For time-lapse laser scanning microscopy, cells were cultivated in a microscope-coupled incubation chamber (Zeiss, Jena, Germany) at 37° C. under 5% CO2. Cells were seeded at a density of 2×10^5 cells per 3.5-cm in plates with a glass bottom which were purchased either uncoated or coated with poly-lysine from MatTek Corporation (Ashland, Mass., USA). Uncoated plates were coated for 4 h at 37° C. with collagen I (100 μg/ml, Sigma, Deisenhofen, Germany) or overnight at 4° C. with fibronectin (10 μg/ml, Sigma) or vitronectin (10 μg/ml, Becton Dickinson, Bedford, USA). Kinase inhibitors were used at final concentrations of 50 μM (PD 98059, Sigma, Deisenhofen, Germany), 40 μM (LY 294002, Calbiochem, Schwalbach, Germany), or 6.3 μM (Tyrphostin AG 1478, Sigma).
Phase contrast images were taken at 3 min intervals with an Axiovert laser scanning microscope LSM 510 (Zeiss) with lens PNF 20×/0.4 PH2 and a helium-neon laser at 543 nm in transmission scanning mode. The percentage of motile cells was measured by drawing the outlines of cells on the screen and counting the cells which moved completely out of the initial area within the recording time of 7 h. […]
Cells were brought in suspension by disruption of cell-cell and cell-matrix interactions and seeded on glass plates precoated with collagen type 1. Cell motility was analyzed by long-term recordings of a duration of 7 h starting 2 h after plating using a laser scanning microscope coupled with a temperature- and CO2-controlled incubation chamber. […]
It has been shown for a number of cell lines that the motile behavior of individual cells is variable and therefore it is advisable to investigate a large number of cells to obtain a reliable determination of cellular velocity (Hartmann-Petersen, Cytometry 40 (2000), 260-270). In order to determine the motility of individual cells, the center of the nucleus was semiautomatically traced and the speed of 60 cells per cell line derived from at least three independent experiments was calculated. […]

The mark [5] stands for this setting: collagen I, Tyrphostin AG1478 6,3 μM.
The mark [6] stands for this setting: p8-EcadEGFP cells, collagen I, Tyrphostin AG1478 6,3 μM, 10 cells, 4 h.
[7] abbreviates: serum starved overnight, EGF 100 ng/ml.

“Also recorded” adds a separate entry of the source.

As for `COc1cccc(-c2cc(=O)c3ccccc3o2)c1N` [PD 98059], the “cell motility enhanced by mutant E-cadherin (effect of inhibitor)” value in test [1] was “less effective; also recorded: no inhibitory effect”. Also, the “EGF-induced activation of MAP kinase (phosphorylation)” value with p44/42 MAP kinase is “effectively blocked”.
Turning to `COc1cc2ncnc(Nc3cccc(Cl)c3)c2cc1OC` [Tyrphostin AG 1478], in test [1], the “cell motility enhanced by mutant E-cadherin (effect of inhibitor)” value is on record as “sensitive”. Further, in test [1] (traced 7 h), the “median and range of cell speeds” value is “decreased to the level of wt E-cadherin expressing cells”; the “percentage of motile cells” value was “decreased to the level of wt E-cadherin expressing cells”. In addition, the “localization of wt-EcadEGFP” value in test [2] (Tyrphostin AG1478 6,3 μM) is listed as “not significantly changed; also recorded: no influence”. Besides, in test [2] (setting [5]), the “cell motility (range of cell speeds)” value is reported as 1,3-8,8 μm/h and the “cell paths (range)” value is given as 15,1-35,2 μm. Besides, in the test on Akt/PKB, the “EGF-induced activation of Akt/PKB” value is “completely blocked”. The “EGF-induced activation of MAP kinase (phosphorylation)” value in the test with p44/42 MAP kinase is reported as “completely blocked”. The “localization of p8-EcadEGFP” value in test [3] (Tyrphostin AG1478 6,3 μM) is “also localized perinuclear and at cell cell adhesion sites; also recorded: localized at cell cell contacts and perinuclear”. In test [3] (setting [6]), the “cell motility (range of cell speeds)” value is 5,7-20 μm/h and the “cell paths (range)” value was 22,8-80,3 μm.
epidermal growth factor [EGF]: in test [2] (setting [7]), the “cell motility (range of cell speeds)” value is 3,8-15,6 μm/h and the “cell paths (range)” value was 15,1-62,4 μm. In addition, in test [4] (wt E-cadherin cells on collagen I, 7 h, EGF 100 ng/ml), the “percentage of motile cells” value is “increased to the level of del 8 E-cadherin expressing cells”. Besides, the cellular motility result in test [4] (wt E-cadherin cells, EGF treatment) is recorded as “enhanced cellular motility”. Further, the cell morphology entry in test [4] (wt or del 8 E-cadherin cells on collagen I, 2 h after plating, EGF 100 ng/ml (FIG. 5C)) is “developed filopodia and lost cell to cell contacts”. Moreover, in test [3] (EGF 100 ng/ml, p=0,364 Kruskal Wallis Test), the “effect on the motility of p8-EcadEGFP transfected cells” value is listed as “only minor effects”. For the same molecule, the “cell paths (range)” value in test [3] (p8-EcadEGFP cells, serum starved overnight, EGF 100 ng/ml, 10 cells, 4 h) is reported as 19,7-97,2 μm. In test [3] (serum starved, EGF 100 ng/ml), the “localization of p8-EcadEGFP” value is “detectable at the cell edges and in lamellipodiae and at cell cell contact sites; also recorded: no influence”.
